The values that follow come from US11857600B2, “GPCR heteromer inhibitors and uses thereof” (GPCR THERAPEUTICS, INC., priority 2017, dated 2024).

Read-outs that look alike come from different tables or passages of the source. Where a SMILES comes first, the peptide text is derived from it. Bridges are numbered along the chain shown (N, C = ends). [ ]: non-standard residue; d: D form. The star is where a group is joined. 2Nal = N[C@@H](Cc1ccc2ccccc2c1)C(=O)O; Benzoyl(4-F) = O=C(c1ccc(F)cc1)*; Cit = NC(=O)NCCC[C@H](N)C(=O)O

Common to all, as to format: cell-based
The target of one assay is T1, CXCR4 (Homo sapiens, UniProt P61073).
T1 construct: expressed in transfected cells
T1 sequence (P61073 whole entry): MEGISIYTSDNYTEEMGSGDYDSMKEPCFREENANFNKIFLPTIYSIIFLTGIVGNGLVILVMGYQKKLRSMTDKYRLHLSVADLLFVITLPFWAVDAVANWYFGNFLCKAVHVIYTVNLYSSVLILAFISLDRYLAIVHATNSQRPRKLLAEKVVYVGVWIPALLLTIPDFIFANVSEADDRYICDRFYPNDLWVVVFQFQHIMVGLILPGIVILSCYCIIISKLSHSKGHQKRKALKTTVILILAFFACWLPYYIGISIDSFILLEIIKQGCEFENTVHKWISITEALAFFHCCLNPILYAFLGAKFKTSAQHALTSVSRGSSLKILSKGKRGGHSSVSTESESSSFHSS
In words: Calcium mobilization assay in MDA-MB-231 cells expressing CXCR4 alone. As to conditions: cells expressing CXCR4 alone; CXCR4 inhibitor only; stimulated with CXCL12 20 nM and Salmeterol 1 μM; read-out: CXCR4 IC50 of Ca2+ response. The protocol: The cells were then stained with Cal-6 for 2 hours and stimulated with CXCR4 agonsit (CXCL12; 20 nM) and ADRB2 agonist (Salmeterol; 1 μM).

In the next assay the target is T2, CXCR4-ADRB2 heteromer (Homo sapiens, UniProt P07550+P61073).
T2 construct: expressed in transfected cells
T2 sequence (P61073 whole entry): as above
T2 sequence (P07550 whole entry): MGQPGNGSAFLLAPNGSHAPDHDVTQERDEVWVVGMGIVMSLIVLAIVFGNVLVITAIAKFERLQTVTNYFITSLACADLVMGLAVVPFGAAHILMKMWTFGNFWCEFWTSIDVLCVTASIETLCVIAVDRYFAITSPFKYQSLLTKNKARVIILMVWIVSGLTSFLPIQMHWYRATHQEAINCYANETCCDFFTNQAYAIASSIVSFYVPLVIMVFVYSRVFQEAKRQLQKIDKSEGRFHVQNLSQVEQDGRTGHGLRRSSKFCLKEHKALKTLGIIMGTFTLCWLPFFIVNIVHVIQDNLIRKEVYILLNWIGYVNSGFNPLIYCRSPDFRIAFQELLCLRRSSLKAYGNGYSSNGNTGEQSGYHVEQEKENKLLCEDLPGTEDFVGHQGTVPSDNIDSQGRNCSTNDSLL
The assay can be described thus: Calcium mobilization assay, enhanced signaling of CXCR4-ADRB2 heteromer in MDA-MB-231 cells. As to conditions: CXCR4 inhibitor only.

A further assay deals with T3, CXCR4-HRH1 heteromer (Homo sapiens, UniProt P35367+P61073).
T3 construct: expressed in transfected cells
T3 sequence (P61073 whole entry): as the sequence (P61073 whole entry) above
T3 sequence (P35367 whole entry): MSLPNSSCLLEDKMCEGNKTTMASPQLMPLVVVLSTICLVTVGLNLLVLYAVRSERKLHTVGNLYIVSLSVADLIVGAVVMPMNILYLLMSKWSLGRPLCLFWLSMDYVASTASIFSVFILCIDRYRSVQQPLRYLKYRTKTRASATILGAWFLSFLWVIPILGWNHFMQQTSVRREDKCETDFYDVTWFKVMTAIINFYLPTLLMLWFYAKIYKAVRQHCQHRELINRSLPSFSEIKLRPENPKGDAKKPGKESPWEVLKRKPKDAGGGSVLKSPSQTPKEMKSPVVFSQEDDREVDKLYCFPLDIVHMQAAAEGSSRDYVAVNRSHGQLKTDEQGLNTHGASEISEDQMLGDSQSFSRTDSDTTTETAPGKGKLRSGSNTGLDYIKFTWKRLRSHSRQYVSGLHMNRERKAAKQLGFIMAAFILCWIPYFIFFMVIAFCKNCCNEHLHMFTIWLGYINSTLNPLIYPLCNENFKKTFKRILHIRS
In words: Calcium mobilization assay, enhanced signaling of CXCR4-HRH1 heteromer in MDA-MB-231 cells. As to conditions: CXCR4 inhibitor only; CXCL12 20 nM and Histamine 1 nM; read-out: IC50 of Ca2+ response, HRH1 inhibitor: None. As for the experimental part: The efficiency of CXCR4 inhibitors in suppressing the enhanced signaling of CXCR4-HRH1 heteromer was measured in the absence or presence of the representative HRH1 inhibitors Hydroxyzine, Prometazine, or Cyproheptadine (Table 8). […] Inhibitors were treated 30 min before agonist stimulation. Ca2+ mobilization was measured as described in FIG. 5, and IC50 values were calculated using GraphPad Prism software.

Assay [1] has as its target CXCR4-ADCYAP1R1 heteromer (Homo sapiens, UniProt P41586+P61073). The assay can be described thus: Calcium mobilization assay, enhanced signaling of CXCR4-ADCYAP1R1 heteromer in MDA-MB-231 cells. As to conditions: CXCR4 inhibitor only; CXCL12 20 nM and PACAP-38 1 nM; read-out: IC50 of Ca2+ response, ADCYAP1R1 inhibitor: None. The protocol: (§1) Inhibitors were treated 30 min before agonist stimulation. Ca2+ mobilization was measured as described in FIG. 5, and IC50 values were calculated using GraphPad Prism software.

A further assay concerns the target T4, CXCR4-C5AR1 heteromer (Homo sapiens, UniProt P21730+P61073).
T4 construct: expressed in transfected cells
In words: Calcium mobilization assay, enhanced signaling of CXCR4-C5AR1 heteromer in MDA-MB-231 cells. As to conditions: CXCR4 inhibitor only; CXCL12 20 nM and C5a 0.03 nM; read-out: IC50 of Ca2+ response, C5AR1 inhibitor: None. As for the experimental part:
as §1

The target of a further assay is CXCR4-CALCR heteromer (Homo sapiens, UniProt P30988+P61073). The assay can be described thus: Calcium mobilization assay, enhanced signaling of CXCR4-CALCR heteromer in MDA-MB-231 cells. As to conditions: CXCR4 inhibitor only; CXCL12 20 nM and calcitonin 100 nM; read-out: IC50 of Ca2+ response, CALCR inhibitor: None. As for the experimental part:
as §1

In the next assay the target is T5, CXCR4-EDNRB heteromer (Homo sapiens, UniProt P24530+P61073).
T5 construct: expressed in transfected cells
T5 sequence (P61073 whole entry): as the sequence (P61073 whole entry) above
T5 sequence (P24530 27-442): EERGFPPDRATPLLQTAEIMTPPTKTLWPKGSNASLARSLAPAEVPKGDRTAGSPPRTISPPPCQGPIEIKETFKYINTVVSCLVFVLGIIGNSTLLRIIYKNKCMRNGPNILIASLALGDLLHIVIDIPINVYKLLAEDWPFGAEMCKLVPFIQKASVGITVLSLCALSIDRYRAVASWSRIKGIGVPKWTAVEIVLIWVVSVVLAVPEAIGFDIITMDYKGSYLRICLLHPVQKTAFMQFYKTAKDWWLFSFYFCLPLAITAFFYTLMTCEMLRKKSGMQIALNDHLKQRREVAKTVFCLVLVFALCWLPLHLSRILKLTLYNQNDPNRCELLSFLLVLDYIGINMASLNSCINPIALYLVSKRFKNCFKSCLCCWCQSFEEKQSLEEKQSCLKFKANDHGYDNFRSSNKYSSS
In words: Calcium mobilization assay, enhanced signaling of CXCR4-EDNRB heteromer in MDA-MB-231 cells. As to conditions: CXCR4 inhibitor only; CXCL12 20 nM and BQ3020 0.5 nM; read-out: IC50 of Ca2+ response, EDNRB inhibitor: None. The protocol:
The efficiency of CXCR4 inhibitors in suppressing the enhanced signaling of CXCR4-EDNRB heteromer was measured in the absence or presence of the representative EDNRB inhibitors ambrisentan or bosentan (Table 12). […] Inhibitors were treated 30 min before agonist stimulation. Ca2+ mobilization was measured as described in FIG. 5, and IC50 values were calculated using GraphPad Prism software.

The next assay concerns the target T6, CXCR4-MLNR heteromer (Homo sapiens, UniProt O43193+P61073).
T6 construct: expressed in transfected cells
The assay can be described thus: Calcium mobilization assay, enhanced signaling of CXCR4-MLNR heteromer in MDA-MB-231 cells. As to conditions: CXCR4 inhibitor only; CXCL12 20 nM and motilin 0.2 nM; read-out: IC50 of Ca2+ response, MLNR inhibitor: None. The protocol: as §1

For a further assay, the target named is T7, CXCR4-TACR3 heteromer (Homo sapiens, UniProt P29371+P61073).
T7 construct: expressed in transfected cells
T7 sequence (P61073 whole entry): as the sequence (P61073 whole entry) above
T7 sequence (P29371 whole entry): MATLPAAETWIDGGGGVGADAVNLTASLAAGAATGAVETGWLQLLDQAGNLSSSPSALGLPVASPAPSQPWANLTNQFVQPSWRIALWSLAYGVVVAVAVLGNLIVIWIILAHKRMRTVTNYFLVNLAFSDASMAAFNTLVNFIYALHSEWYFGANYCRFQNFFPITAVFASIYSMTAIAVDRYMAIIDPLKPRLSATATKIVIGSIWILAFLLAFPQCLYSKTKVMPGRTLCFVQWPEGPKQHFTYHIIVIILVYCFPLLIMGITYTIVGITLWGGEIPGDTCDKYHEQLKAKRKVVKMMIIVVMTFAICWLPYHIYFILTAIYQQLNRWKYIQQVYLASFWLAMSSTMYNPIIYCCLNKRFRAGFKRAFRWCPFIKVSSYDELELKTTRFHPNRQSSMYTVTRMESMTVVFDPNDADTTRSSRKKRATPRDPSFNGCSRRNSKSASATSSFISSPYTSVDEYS
The assay can be described thus: Calcium mobilization assay, enhanced signaling of CXCR4-TACR3 heteromer in MDA-MB-231 cells. As to conditions: CXCR4 inhibitor only; CXCL12 20 nM and neurokinin B 0.3 nM; read-out: IC50 of Ca2+ response, TACR3 inhibitor: None. As for the experimental part:
as §1

For the next assay, the target named is T8, CXCR4-NTSR1 heteromer (Homo sapiens, UniProt P30989+P61073).
T8 construct: expressed in transfected cells
T8 sequence (P61073 whole entry): as the sequence (P61073 whole entry) above
T8 sequence (P30989 whole entry): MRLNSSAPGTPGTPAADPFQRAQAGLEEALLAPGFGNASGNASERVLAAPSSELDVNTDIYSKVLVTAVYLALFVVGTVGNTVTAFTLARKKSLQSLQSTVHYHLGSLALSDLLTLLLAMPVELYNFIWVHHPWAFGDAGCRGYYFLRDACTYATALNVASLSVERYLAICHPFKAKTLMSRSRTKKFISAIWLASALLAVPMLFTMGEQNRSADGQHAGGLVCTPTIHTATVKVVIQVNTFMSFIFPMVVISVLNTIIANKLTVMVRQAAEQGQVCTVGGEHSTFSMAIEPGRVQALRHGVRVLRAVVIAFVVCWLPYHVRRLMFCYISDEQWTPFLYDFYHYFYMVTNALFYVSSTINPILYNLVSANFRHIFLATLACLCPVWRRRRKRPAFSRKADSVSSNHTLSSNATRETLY
The assay can be described thus: Calcium mobilization assay, enhanced signaling in MDA-MB-231 cells co-expressing CXCR4 and NTSR1. As to conditions: antagonist 1 μM; FIG. 8K.

Sequence of CXCR4-CALCR heteromer (P61073 whole entry): as the sequence (P61073 whole entry) above
Sequence of CXCR4-CALCR heteromer (P30988 25-474): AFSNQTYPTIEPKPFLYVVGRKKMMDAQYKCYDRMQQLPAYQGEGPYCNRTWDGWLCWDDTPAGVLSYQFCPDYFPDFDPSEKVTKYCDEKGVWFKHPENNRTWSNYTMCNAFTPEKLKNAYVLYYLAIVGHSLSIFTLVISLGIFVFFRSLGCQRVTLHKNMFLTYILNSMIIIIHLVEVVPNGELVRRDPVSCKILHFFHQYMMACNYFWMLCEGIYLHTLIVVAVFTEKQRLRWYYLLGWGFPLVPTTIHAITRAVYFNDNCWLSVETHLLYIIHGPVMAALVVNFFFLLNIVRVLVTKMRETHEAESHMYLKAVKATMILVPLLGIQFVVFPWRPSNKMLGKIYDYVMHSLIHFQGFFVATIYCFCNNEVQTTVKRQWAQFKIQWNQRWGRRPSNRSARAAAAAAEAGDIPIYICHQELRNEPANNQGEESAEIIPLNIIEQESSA
T6 sequence (P61073 whole entry): as the sequence (P61073 whole entry) above
T6 sequence (O43193 whole entry): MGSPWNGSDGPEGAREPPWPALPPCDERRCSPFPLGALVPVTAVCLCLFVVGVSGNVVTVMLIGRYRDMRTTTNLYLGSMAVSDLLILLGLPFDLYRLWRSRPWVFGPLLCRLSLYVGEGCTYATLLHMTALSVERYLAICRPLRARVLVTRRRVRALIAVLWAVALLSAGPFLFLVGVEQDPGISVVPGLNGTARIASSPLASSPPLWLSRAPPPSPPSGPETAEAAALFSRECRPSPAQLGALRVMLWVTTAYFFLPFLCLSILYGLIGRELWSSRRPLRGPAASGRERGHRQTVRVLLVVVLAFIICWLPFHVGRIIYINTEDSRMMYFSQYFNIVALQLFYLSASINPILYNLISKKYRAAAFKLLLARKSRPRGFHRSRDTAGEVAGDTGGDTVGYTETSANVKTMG
T4 sequence (P61073 whole entry): as the sequence (P61073 whole entry) above
T4 sequence (P21730 whole entry): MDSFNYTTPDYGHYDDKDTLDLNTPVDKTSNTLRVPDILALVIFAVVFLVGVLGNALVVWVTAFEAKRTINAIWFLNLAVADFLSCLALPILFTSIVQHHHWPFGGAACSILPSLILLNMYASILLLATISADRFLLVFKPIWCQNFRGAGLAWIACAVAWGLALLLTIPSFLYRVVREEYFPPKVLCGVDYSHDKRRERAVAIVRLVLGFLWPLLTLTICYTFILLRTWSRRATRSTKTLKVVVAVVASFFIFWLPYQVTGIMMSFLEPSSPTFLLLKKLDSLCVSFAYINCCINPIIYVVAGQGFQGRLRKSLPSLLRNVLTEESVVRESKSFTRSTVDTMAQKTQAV
Sequence of CXCR4-ADCYAP1R1 heteromer (P61073 whole entry): as the sequence (P61073 whole entry) above
Sequence of CXCR4-ADCYAP1R1 heteromer (P41586 21-468): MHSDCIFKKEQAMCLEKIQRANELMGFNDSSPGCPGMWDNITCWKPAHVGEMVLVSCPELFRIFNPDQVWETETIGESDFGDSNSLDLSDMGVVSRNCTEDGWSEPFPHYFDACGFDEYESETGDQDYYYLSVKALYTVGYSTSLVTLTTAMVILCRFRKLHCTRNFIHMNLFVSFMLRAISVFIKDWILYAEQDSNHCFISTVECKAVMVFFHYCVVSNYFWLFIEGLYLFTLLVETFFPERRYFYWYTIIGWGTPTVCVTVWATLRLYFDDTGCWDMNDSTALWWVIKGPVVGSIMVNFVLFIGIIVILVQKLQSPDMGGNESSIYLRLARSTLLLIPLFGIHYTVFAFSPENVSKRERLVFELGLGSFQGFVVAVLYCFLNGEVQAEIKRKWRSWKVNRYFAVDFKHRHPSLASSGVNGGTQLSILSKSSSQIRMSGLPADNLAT

For the compound `N=C(N)NCCC[C@H](NC(=O)[C@@H]1CSSC[C@H](NC(=O)[C@H](Cc2ccc3ccccc3c2)NC(=O)[C@H](CCCNC(=N)N)NC(=O)[C@H](CCCNC(=N)N)NC(=O)c2ccc(F)cc2)C(=O)N[C@@H](Cc2ccc(O)cc2)C(=O)N[C@@H](CCCNC(N)=O)C(=O)N[C@@H](CCCCN)C(=O)N[C@H](CCCCN)C(=O)N2CCC[C@H]2C(=O)N[C@@H](Cc2ccc(O)cc2)C(=O)N[C@@H](CCCNC(=N)N)C(=O)N[C@@H](CCCNC(N)=O)C(=O)N1)C(N)=O` [BKT140] ({Benzoyl(4-F)}-RR[2Nal]CY[Cit]K[dK]PYR[Cit]CR-NH2; disulfide 4-13; C-terminus assumed), the IC50 was 0.434 ± 0.00438 µM on CXCR4; 0.13 ± 0.0498 µM at CXCR4-ADRB2 heteromer (CXCR4 + ADRB2 (−Carvedilol) IC50 of Ca2+ response, stimulated with CXCL12 20 nM and Salmeterol 1 μM); 0.124 ± 0.0769 µM at CXCR4-ADRB2 heteromer (Table 7, CXCL12 20 nM and Salmeterol 1 μM, read-out: IC50 of Ca2+ response, ADRB2 inhibitor: None); 0.232 ± 0.0919 µM on CXCR4-HRH1 heteromer; 0.213 ± 0.143 µM in assay [1]; 0.118 ± 0.0565 µM on CXCR4-C5AR1 heteromer. The concentration for half-maximal inhibition (IC50) on CXCR4-CALCR heteromer was 1.04 ± 0.757 µM; on CXCR4-EDNRB heteromer, 2.68 ± 3.93 µM; on CXCR4-MLNR heteromer it was 0.644 ± 0.163 µM; on CXCR4-TACR3 heteromer it was 1.5 ± 0.42 µM.

Regarding `COc1cccc(OC)c1-c1cc(C(=O)NC2(C(=O)O)C3CC4CC(C3)CC2C4)nn1-c1ccnc2cc(Cl)ccc12` (centres unmarked) [meclinertant], the “suppression of enhanced calcium signaling upon co-stimulation with CXCL12 and NTSR1 agonist” value on CXCR4-NTSR1 heteromer is listed as “suppressed the enhanced calcium signaling significantly”.
